Measurements from patent publication US12448369B2 (Edgewise Therapeutics, Inc., priority 2023, dated 2025).

Experiments:
[1] = test system: Porcine atria myofibrils (atrial myosin ATPase); experiment: Myofibril ATPase assay, porcine atria myofibrils; type: biochemical
Outline: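 Coupled PK-LDH reaction links ADP from myosin ATPase to NADH loss, read at 340 nm every 1.5-2 min for 75 min. Slopes (mAU/min) normalized to vehicle-only wells (100%) and fit to a 4-parameter logistic; Y75 is the concentration cutting activity by 25%, Y125 is reported for activators.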

[2] = test system: Rabbit Psoas myofibrils (skeletal myosin ATPase); experiment: Myofibril ATPase assay, rabbit psoas (skeletal) myofibrils; type: biochemical
Outline: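 Rabbit psoas skeletal myofibrils in PIPES/CaCl2/EGTA pCa buffer, pH 7.0. ATPase rate followed by PK-LDH-coupled NADH loss at 340 nm, read every 1.5–2 min for 75 min. Slopes normalized to vehicle (100%) and fitted to a 4-parameter logistic; values are Y75 (25% inhibition) or Y125 (25% activation) concentrations.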

[3] = molecular target: T1, Porcine ventricle myofibrils (ventricular myosin ATPase) (Sus scrofa, UniProt P79293); experiment: Myofibril ATPase assay, porcine ventricle myofibrils; type: biochemical, porcine (Yucatan minipigs)
T1 construct: Myofibrils from porcine cardiac muscle was isolated from the left ventricle of Yucatan minipigs; tissue Exemplar Genetics; host or cells: left ventricle of Yucatan minipigs, myofibrils prepared in house
T1 sequence (P79293 whole entry): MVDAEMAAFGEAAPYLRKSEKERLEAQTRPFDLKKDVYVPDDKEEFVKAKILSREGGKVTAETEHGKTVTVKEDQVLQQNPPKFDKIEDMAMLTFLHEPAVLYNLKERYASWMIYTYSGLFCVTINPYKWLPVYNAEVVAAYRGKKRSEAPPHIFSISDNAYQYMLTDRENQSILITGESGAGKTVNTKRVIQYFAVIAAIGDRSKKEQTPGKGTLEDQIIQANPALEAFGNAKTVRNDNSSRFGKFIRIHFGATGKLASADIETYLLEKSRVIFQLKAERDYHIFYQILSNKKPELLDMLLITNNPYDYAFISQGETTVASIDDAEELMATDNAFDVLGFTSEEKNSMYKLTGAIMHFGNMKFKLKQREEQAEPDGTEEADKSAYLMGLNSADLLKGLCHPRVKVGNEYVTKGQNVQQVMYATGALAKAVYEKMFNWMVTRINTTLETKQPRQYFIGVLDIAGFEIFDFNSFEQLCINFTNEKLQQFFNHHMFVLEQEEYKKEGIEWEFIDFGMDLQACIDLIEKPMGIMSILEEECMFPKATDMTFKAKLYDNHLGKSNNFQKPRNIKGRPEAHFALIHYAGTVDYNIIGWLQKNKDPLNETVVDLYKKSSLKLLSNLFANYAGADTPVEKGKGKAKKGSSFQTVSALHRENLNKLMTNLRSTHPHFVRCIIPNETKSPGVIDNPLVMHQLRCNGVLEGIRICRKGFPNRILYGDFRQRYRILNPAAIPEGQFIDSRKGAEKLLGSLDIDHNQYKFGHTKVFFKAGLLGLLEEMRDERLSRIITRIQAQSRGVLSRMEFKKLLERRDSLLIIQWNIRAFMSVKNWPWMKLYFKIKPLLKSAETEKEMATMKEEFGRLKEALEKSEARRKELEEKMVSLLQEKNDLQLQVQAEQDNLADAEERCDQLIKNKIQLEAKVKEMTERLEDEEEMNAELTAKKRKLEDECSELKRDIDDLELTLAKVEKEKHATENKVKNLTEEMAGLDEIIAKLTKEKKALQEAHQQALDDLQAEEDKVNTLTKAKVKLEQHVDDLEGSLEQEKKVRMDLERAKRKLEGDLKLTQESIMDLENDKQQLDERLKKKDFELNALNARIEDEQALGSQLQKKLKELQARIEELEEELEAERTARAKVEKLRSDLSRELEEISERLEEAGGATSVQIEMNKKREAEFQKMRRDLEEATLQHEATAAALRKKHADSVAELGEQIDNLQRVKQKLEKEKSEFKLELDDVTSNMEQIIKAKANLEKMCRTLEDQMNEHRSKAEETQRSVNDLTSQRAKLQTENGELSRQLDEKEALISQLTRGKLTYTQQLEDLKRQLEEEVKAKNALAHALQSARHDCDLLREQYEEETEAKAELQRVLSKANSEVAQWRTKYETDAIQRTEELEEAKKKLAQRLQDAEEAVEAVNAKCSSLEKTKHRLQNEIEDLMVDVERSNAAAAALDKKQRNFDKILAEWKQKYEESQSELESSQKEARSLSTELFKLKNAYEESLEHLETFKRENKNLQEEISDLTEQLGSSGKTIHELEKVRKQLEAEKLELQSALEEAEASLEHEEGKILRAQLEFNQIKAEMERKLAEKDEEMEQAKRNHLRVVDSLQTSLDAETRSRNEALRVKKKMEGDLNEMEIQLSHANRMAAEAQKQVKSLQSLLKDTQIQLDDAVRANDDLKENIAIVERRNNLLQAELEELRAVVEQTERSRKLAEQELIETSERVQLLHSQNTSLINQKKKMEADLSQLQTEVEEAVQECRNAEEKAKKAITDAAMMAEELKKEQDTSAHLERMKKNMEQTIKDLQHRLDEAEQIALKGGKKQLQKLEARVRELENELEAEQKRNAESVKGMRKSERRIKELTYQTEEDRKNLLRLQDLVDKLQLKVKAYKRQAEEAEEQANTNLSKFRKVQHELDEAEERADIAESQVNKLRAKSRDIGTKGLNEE
Outline: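 ATPase activity of porcine left-ventricle myofibrils (Yucatan minipig) was followed through PK-LDH coupling as NADH loss at 340 nm, read every 1.5-2 min for 75 min. Slopes were normalised to vehicle wells and fitted to a 4-parameter logistic model. Values are Y75, the concentration giving a 25% drop in activity, or Y125 for activators.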

[4] = Y75 value (no ‡ mark), porcine atria myofibrils
[5] = Y75 value (no ‡ mark), rabbit psoas myofibrils
[6] = Y75 value (no ‡ mark), porcine ventricle myofibrils
[7] = ‡ Y125 value, not a Y75 value (125% activity relative to no compound), rabbit psoas myofibrils
[8] = ‡ Y125 value, not a Y75 value (125% activity relative to no compound), porcine ventricle myofibrils
[9] = porcine atria myofibrils, Y75 value (75% activity relative to no compound)
[10] = rabbit psoas myofibrils, Y75 value
[11] = porcine ventricle myofibrils, Y75 value

Structure (SMILES) | Atrial EC25 [1, 4] [µM] | Skeletal EC25 [2, 5] [µM] | Ventricular EC25 [3, 6] [µM] | Atrial EC25 [1, 9] [µM] | Skeletal EC25 [2, 10] [µM] | Ventricular EC25 [3, 11] [µM] | further results
C[C@H](NC(=O)C1(c2cc3cc(F)ccc3[nH]c2=O)CC1)c1cccc(C#N)n1 (single isomer, unassigned) [compound 2535] | 100.00 | – | – | – | – | – | Skeletal EC25 [2, 7]: 51.07‡ μM; Ventricular EC25 [3, 8]: 85.38‡ μM
C[C@H](NC(=O)Cc1c(C(F)(F)F)c2c(Cl)nccc2[nH]c1=O)c1ccc(F)cc1F [compound 428] | – | – | – | 1.35 | 0.09 | 1.94 | –
C#Cc1nccc2[nH]c(=O)c(CC(=O)N[C@@H](C)c3ccc(F)cc3F)cc12 [compound 431] | – | – | – | 11.13 | 0.80 | 50.88 | –
Cc1nccc2[nH]c(=O)c(CC(=O)N[C@H]3COc4cccnc43)c(C)c12 (single isomer, unassigned) [compound 252] | – | – | – | 100.00 | 100.00 | 100.00 | –
Cc1nccc2[nH]c(=O)c(C(F)(F)C(=O)N[C@@H](C)c3ccc(F)cc3F)c(C)c12 [compound 405] | – | – | – | 0.15 | 0.04 | 1.12 | –
C[C@H](NC(=O)C1(c2cc3cc(F)ccc3[nH]c2=O)CC1)c1cc(C#N)ccn1 (single isomer, unassigned) [compound 2537] | 100.00 | – | – | – | – | – | Skeletal EC25 [2, 7]: 100.00‡ μM; Ventricular EC25 [3, 8]: 100.00‡ μM
C[C@H](NC(=O)[C@@H](C)c1cc2c(F)c(F)ccc2[nH]c1=O)c1ccc(F)cc1F (single isomer, unassigned) [compound 110] | 0.52 | 100.00 | 42.60 | – | – | – | –
C[C@@H](NC(=O)Cc1cc2cc(F)c(F)cc2[nH]c1=O)c1cnc(C#N)cn1 [compound 1098] | 7.06 | 17.72 | 17.06 | – | – | – | –
C[C@@H](NC(=O)Cc1cc2c(F)c(F)ccc2[nH]c1=O)c1cnc(C#N)cn1 (single isomer, unassigned) [compound 11] | 0.05 | 0.07 | 0.15 | – | – | – | –
Cc1nccc2[nH]c(=O)c(C3(C(=O)N[C@H](C)c4ccc(C#N)cc4F)CC3)c(C)c12 (single isomer, unassigned) [compound 3516] | – | – | – | 0.51 | 0.24 | 1.49 | –
C[C@H](NC(=O)Cc1c(C(F)(F)F)c2ncccc2[nH]c1=O)c1ccc(F)cc1F [compound 417] | – | – | – | 9.70 | 0.17 | 9.50 | –
C[C@H](NC(=O)[C@@H](C)c1c(C(F)(F)F)c2c(F)cccc2[nH]c1=O)c1ccc(F)cc1F (single isomer, unassigned) [compound 97] | 0.19 | 0.23 | 5.34 | – | – | – | –
Cc1cccc([C@H](C)NC(=O)Cc2c(C)c3c(C)nccc3[nH]c2=O)c1 (single isomer, unassigned) [compound 340] | – | – | – | 36.97 | 100.00 | 100.00 | –
C[C@H](NC(=O)Cc1cc2c(OCC(F)F)nccc2[nH]c1=O)c1ccc(F)cc1F [compound 389] | – | – | – | 0.71 | 0.25 | 100.00 | –
Cc1c(CC(=O)N[C@@H](C)c2ccc(F)cc2F)c(=O)[nH]c2ccnc(OCC(C)C)c12 [compound 371] | – | – | – | 3.04 | 0.37 | 100.00 | –
C[C@@H](NC(=O)Cc1cc2c(F)c(F)ccc2[nH]c1=O)c1nc(C#N)co1 (single isomer, unassigned) [compound 4006] | – | – | – | – | – | – | Atrial EC25 ([1]; Y75 value: concentration required to reduce myosin ATP-ase activity by 25%, Porcine Atria Prep pCa 25 GEOM_MEAN): 0.74 µM; Skeletal EC25 ([2]; Y75 value: concentration required to reduce myosin ATP-ase activity by 25%, Rabbit Psoas Prep pCa 25 GEOM_MEAN): 1.11 µM; Ventricular EC25 ([3]; Y75 value: concentration required to reduce myosin ATP-ase activity by 25%, Porcine Ventricle Prep pCa 25 GEOM_MEAN): 6.66 µM
Cc1c(C2(C(=O)N[C@@H](C)c3cc(C#N)ccn3)CC2)c(=O)[nH]c2ccc(F)cc12 (single isomer, unassigned) [compound 2578] | – | – | – | – | – | – | Atrial EC25 ([1]; ‡ Y125 value, not a Y75 value (125% activity relative to no compound), porcine atria myofibrils): 100.00‡ μM; Skeletal EC25 [2, 7]: 100.00‡ μM; Ventricular EC25 [3, 8]: 100.00‡ μM
Cc1c(CC(=O)N[C@@H](C)c2ccc(F)cc2F)c(=O)[nH]c2ccnc(OCC(C)(C)F)c12 [compound 372] | – | – | – | 100.00 | 1.61 | 100.00 | –

Further lines, with some results ahead:

Atrial EC25 [1, 4] [µM] | Skeletal EC25 [2, 5] [µM] | Ventricular EC25 [3, 6] [µM] | Atrial EC25 [1, 9] [µM] | Skeletal EC25 [2, 10] [µM] | Ventricular EC25 [3, 11] [µM] | Structure (SMILES) | further results
0.60 | 0.16 | 1.53 | – | – | – | Cc1c(C(F)(F)C(=O)N[C@@H](C)c2ncc(C#N)cn2)c(=O)[nH]c2ccc(F)c(C(F)(F)F)c12 (single isomer, unassigned) [Compound 2514] | –
0.05 | 0.02 | 0.08 | – | – | – | Cc1c([C@@H](C)C(=O)N[C@@H](C)c2ncc(C#N)cc2F)c(=O)[nH]c2ccc(F)c(F)c12 (relative stereo) [compound 2602, rel-(2R*)-N-[(1S)-1-(5-cyano-3-fluoropyridin-2-yl)ethyl]-2-(5,6-difluoro-4-methyl-2-oxo-1H-quinolin-3-yl) propanamide] | –
100.00 | 100.00 | 100.00 | – | – | – | C[C@H](NC(=O)Cc1cc2cc(F)c(F)cc2[nH]c1=O)c1ncc(C#N)cn1 (single isomer, unassigned) [compound 2036] | –
– | – | – | 1.12 | 0.38 | 2.11 | Cc1nccc2[nH]c(=O)c(C(F)(F)C(=O)N[C@@H](C)c3ncc(C#N)cc3F)c(C)c12 (single isomer, unassigned) [compound 3517] | –
– | – | – | 94.45 | 100.00 | 15.98 | Cc1ncc(C#N)nc1C(C)NC(=O)Cc1c(C)c2c(C)nccc2[nH]c1=O (stereo not drawn) [compound 461] | –
7.98 | 0.13 | 1.22 | – | – | – | C[C@@H](NC(=O)C(F)(F)c1cc2c(F)c(F)ccc2[nH]c1=O)c1ncc(C#N)cn1 (single isomer, unassigned) [compound 2545] | –
0.22 | 3.4 | 2.36 | – | – | – | Cc1nc(C#N)ccc1[C@@H](C)NC(=O)Cc1c(C)c2cc(F)ccc2[nH]c1=O [compound 1050] | –
0.16 | 0.05 | 0.36 | – | – | – | Cc1c(CC(=O)N[C@@H](C)c2cnc(C#N)cn2)c(=O)[nH]c2ccc(F)cc12 [compound 1109] | –
– | – | – | 0.37 | 0.03 | 0.18 | Cc1nc(C#N)ncc1[C@@H](C)NC(=O)Cc1c(C)c2c(C)nccc2[nH]c1=O [compound 464] | –
– | – | – | 0.18 | 0.04 | 0.54 | Cc1nccc2[nH]c(=O)c(CC(=O)N[C@@H](C)c3ccc(C#N)cc3F)c(C#N)c12 [compound 154] | –
0.49 | 0.15 | 0.64 | – | – | – | CC[C@H](NC(=O)Cc1c(C)c2c(C)c(F)ccc2[nH]c1=O)c1ncc(C#N)cn1 (single isomer, unassigned) [compound 4834] | –
9.16 | 6.95 | 38.45 | – | – | – | Cc1cc(C#N)cnc1[C@@H](C)NC(=O)Cc1c(O)c2c(C)c(F)ccc2[nH]c1=O [compound 1122] | –
2.52 | 7.24 | 55.56 | – | – | – | Cc1c(CC(=O)N[C@@H](C)c2ccc(F)cc2F)c(=O)[nH]c2ccc(O)c(C#N)c12 [compound 84] | –
0.13 | 0.39 | 0.16 | – | – | – | Cc1cc(C#N)nnc1[C@H](C)NC(=O)Cc1c(C)c2cc(F)ccc2[nH]c1=O [compound 1059] | –
0.07 | 0.12 | 0.06 | – | – | – | Cc1nc(C#N)cnc1[C@@H](C)NC(=O)Cc1c(C)c2cc(F)ccc2[nH]c1=O [compound 1068] | –
– | – | – | 69.32 | 100.00 | 100.00 | Cc1ccc([C@H](CO)NC(=O)Cc2c(C)c3c(C)nccc3[nH]c2=O)cc1 (single isomer, unassigned) [compound 336] | –
– | – | – | 0.07 | 0.02 | 0.57 | Cc1c(CC(=O)N[C@@H](C)c2ncc(F)cc2F)c(=O)[nH]c2ccnc(C#N)c12 (single isomer, unassigned) [compound 305] | –
0.17 | 0.06 | 0.31 | – | – | – | Cc1c(CC(=O)N[C@@H](C)c2cnc(C#N)nc2)c(=O)[nH]c2ccc(F)cc12 [compound 1101] | –
